Consider 6 molecules from patent publication US8569292B2, “Cyclic inhibitors of 11β-hydroxysteroid dehydrogenase 1” (Vitae Pharmaceuticals, Inc., priority 2008, dated 2013).

Data set [1] concerns the target T1, 11β-HSD1 (Homo sapiens, UniProt P28845).
Data set [2] can be described thus: Biological Test Example 5: fraction unbound in human plasma (equilibrium dialysis). The format is in vitro ADME. The protocol: Plasma protein binding of compounds was determined with Equilibrium Dialysis of spiked plasma against compound free dextrane buffer using a dialysis membrane with mass cutoff of 5000 Da. Compound concentrations in plasma and buffer after incubation were measured using HPLC/Mass spectrometry.

The next data set has as its target CYP3A4 (Homo sapiens, UniProt P08684). The experiment in a line: Biological Test Example 6: CYP3A4 inhibition (erythromycin N-demethylation). The data set is classed as in vitro ADME.
Data set [3] addresses T2, CYP2C9 (Homo sapiens, UniProt P11712).
T2 construct: purchased Invitrogen 2859; host or cells: insect cells infected with baculovirus (microsomes)
The data set is described as follows: Biological Test Example 7: CYP2C9 inhibition (naproxen O-demethylation). The data set is classed as in vitro ADME.

The next data set has as its target CYP2C19 (Homo sapiens, UniProt P33261). The experiment in a line: Biological Test Example 8: CYP2C19 inhibition (diazepam N-demethylation). The data set is classed as in vitro ADME.
In data set [4] the target is T2, CYP2C9. The data set is described as follows: Biological Test Example 9: CYP2C9 inhibition (Invitrogen kit, fluorogenic OOMR). The format is in vitro ADME.
For data set [5], the target named is T1, 11β-HSD1. The data set is described as follows: biochemical. The settings on record: for IC50: Biological Test Example 1 IC50 (nM); for pIC50: IC50 Range, Biological Test Example 1; for inhibition at 0.1 µM: read-out: Average % inhibition at 100 nM.
Data set [6] deals with T1, 11β-HSD1. The data set is described as follows: Biological Test Example 4: microsomal 11β-HSD1 in the presence of 50% human plasma.

pIC50: −log10 of the molar value. Read-outs that look alike come from different tables or passages of the source. A value given as a limit tells only on which side of the number the result lay.

Chain of CYP2C19 (P33261 whole entry): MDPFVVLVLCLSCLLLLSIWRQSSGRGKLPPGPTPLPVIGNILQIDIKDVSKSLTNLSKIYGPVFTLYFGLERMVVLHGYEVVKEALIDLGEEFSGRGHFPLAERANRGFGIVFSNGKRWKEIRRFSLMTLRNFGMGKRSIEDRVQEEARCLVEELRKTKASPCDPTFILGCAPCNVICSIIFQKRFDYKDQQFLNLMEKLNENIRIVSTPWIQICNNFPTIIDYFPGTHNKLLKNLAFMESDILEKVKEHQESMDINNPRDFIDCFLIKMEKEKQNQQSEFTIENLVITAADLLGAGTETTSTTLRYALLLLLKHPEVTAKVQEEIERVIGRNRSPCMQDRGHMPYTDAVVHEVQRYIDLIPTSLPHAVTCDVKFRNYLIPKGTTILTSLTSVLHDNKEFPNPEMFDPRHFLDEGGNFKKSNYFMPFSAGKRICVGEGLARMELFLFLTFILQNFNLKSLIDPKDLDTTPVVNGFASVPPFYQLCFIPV
T1 sequence (P28845 whole entry): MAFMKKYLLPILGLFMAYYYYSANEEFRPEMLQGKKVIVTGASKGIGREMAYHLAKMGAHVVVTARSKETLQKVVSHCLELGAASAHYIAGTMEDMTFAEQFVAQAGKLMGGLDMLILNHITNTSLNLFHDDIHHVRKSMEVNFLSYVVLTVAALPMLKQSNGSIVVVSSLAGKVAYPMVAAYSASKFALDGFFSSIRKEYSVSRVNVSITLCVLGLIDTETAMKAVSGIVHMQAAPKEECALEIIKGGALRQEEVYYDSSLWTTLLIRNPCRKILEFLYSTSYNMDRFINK
T2 sequence (P11712 whole entry): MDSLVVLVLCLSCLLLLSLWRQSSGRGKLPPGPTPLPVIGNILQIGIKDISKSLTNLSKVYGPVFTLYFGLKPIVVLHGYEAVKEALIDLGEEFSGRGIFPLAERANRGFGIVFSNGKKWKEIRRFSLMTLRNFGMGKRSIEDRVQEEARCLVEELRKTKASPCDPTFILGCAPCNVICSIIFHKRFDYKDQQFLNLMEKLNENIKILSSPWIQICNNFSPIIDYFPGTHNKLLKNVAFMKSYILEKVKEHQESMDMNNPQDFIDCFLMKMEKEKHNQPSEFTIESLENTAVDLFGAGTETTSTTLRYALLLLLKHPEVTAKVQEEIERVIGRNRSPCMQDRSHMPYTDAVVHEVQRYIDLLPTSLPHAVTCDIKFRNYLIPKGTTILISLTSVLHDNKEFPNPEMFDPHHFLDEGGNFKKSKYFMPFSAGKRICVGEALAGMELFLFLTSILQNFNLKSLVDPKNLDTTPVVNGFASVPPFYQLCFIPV
Chain of CYP3A4 (P08684 whole entry): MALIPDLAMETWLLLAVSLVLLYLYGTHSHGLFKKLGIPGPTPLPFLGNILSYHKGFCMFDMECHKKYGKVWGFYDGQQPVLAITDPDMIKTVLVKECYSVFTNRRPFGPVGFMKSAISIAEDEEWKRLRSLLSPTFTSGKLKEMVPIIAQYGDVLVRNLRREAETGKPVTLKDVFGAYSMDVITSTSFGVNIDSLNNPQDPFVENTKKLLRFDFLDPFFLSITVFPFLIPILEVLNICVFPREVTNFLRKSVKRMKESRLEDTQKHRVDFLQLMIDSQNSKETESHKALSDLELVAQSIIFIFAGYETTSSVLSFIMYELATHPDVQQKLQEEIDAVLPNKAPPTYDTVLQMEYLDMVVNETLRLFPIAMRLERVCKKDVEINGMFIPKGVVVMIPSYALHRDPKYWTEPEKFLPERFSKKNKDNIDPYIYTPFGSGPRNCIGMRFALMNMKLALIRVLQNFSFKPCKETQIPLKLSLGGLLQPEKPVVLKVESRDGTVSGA

As for `Cc1cc(-c2ccc([C@H](C)N3CCC(CCN4CCCS4(=O)=O)(c4ccccc4)OC3=O)cc2)ccn1` (stereo in doubt) [EXAMPLE 118, (R)-3-((S)-1-(4-(2-methylpyridin-4-yl)phenyl)ethyl)-6-phenyl-6-(2-(1,1-dioxoisothiazolidin-2-yl)ethyl)-1,3-oxazinan-2-one], at 11β-HSD1 [1] (100 nM), the “Average % inhibition at 100 nM” value is given as 86.3%. For the same molecule, the pIC50 – broadly, the IC50 on a negative log10 scale, so that one unit is a factor of ten – on 11β-HSD1 [1] (read-out: Biological Test Example 1 IC50) is 7.72; at 11β-HSD1 [1] (read-out: IC50 Range, Biological Test Example 1), greater than 7.00.

For `C[C@@H](c1ccc(-c2ccc(C#N)cn2)cc1)N1CC[C@](CC(C)(C)O)(c2ccc(F)cc2)OC1=O` [EXAMPLE 111, 6-(4-((S)-1-((S)-6-(4-fluorophenyl)-6-(2-hydroxy-2-methylpropyl)-2-oxo-1,3-oxazinan-3-yl)ethyl)phenyl)nicotinonitrile], the “Biological Test Example 5 (%)” value in data set [2] stood at 2%. The pIC50 at CYP3A4 is 5.01; on CYP2C9 [3], less than 4.30; against CYP2C19, less than 4.30; against CYP2C9 [4], 5.33; on 11β-HSD1 [5], greater than 7.00; at 11β-HSD1 [6] it was 8.14. Also, on 11β-HSD1 [5], the IC50 – broadly, the concentration needed to halve the response being measured – came to 0.8 nM. The inhibition (as a rule, the percentage by which the read-out fell short of the control) at 0.1 µM at 11β-HSD1 [5] is 97.6%.

For `C[C@@H](c1ccc(-c2cnccn2)cc1)N1CC[C@](CC(C)(C)O)(c2ccccc2)OC1=O` [EXAMPLE 130, (S)-6-(2-hydroxy-2-methylpropyl)-6-phenyl-3-((S)-1-(4-(pyrazin-2-yl)phenyl)ethyl)-1,3-oxazinan-2-one], the “Biological Test Example 5 (%)” value in data set [2] was determined as 1.9%. Besides, the pIC50 against CYP3A4 is 4.93; against CYP2C9 [3], less than 4.30; on CYP2C19, 5.52; at CYP2C9 [4], 5.01; at 11β-HSD1 [5] it was greater than 7.00; at 11β-HSD1 [6], 7.67. Further, the IC50 against 11β-HSD1 [5] stood at 2.5 nM. Moreover, the inhibition at 0.1 µM at 11β-HSD1 [5] came out at 97.9%.

Take `Cc1ccc(-c2ccc([C@H](C)N3CC[C@](CC(C)(C)O)(c4ccccc4)OC3=O)cc2)nn1` [EXAMPLE 134, (S)-6-(2-hydroxy-2-methylpropyl)-3-((S)-1-(4-(6-methylpyridazin-3-yl)phenyl)ethyl)-6-phenyl-1,3-oxazinan-2-one]: the “Biological Test Example 5 (%)” value in data set [2] was 10.5%. Moreover, the pIC50 against CYP3A4 was less than 4.30; against CYP2C9 [3], less than 4.30; against CYP2C19, less than 4.30; against CYP2C9 [4], less than 4.52.

Regarding `C[C@@H](c1ccc(-c2ccc(F)cn2)cc1)N1CC[C@](CC(C)(C)O)(c2ccccc2)OC1=O` [EXAMPLE 136, (S)-3-((S)-1-(4-(5-fluoropyridin-2-yl)phenyl)ethyl)-6-(2-hydroxy-2-methylpropyl)-6-phenyl-1,3-oxazinan-2-one], the “Biological Test Example 5 (%)” value in data set [2] is listed as 0.3%. For the same molecule, the pIC50 was 4.62 on CYP3A4, 4.70 on CYP2C9 [3], 4.61 on CYP2C19 and 5.02 against CYP2C9 [4].

For the molecule `Cc1ncc(-c2ccc([C@H](C)N3CC[C@](CC(C)(C)O)(c4ccccc4)OC3=O)cc2)cn1` [EXAMPLE 149, (S)-6-(2-hydroxy-2-methylpropyl)-3-((S)-1-(4-(2-methylpyrimidin-5-yl)phenyl)ethyl)-6-phenyl-1,3-oxazinan-2-one], the “Biological Test Example 5 (%)” value in data set [2] turned out to be 2.7%. In addition, the negative-log IC50 (pIC50) was less than 4.30 against CYP3A4, less than 4.30 on CYP2C9 [3], less than 4.30 against CYP2C19 and 4.76 against CYP2C9 [4].
